According to the supplement of paper PMC11061612:

What was measured:
Assay in all cases: combination Emax (second highest fraction inhibited in the dose matrix, 72 h); higher = more inhibition; extreme values may be limits of the assay
[1] = test system: SNU-61 (Colorectal Carcinoma)
Procedure, shortened: (§1)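 Cell lines in DMEM/F12 or RPMI with 10% FBS were plated in 1536-well plates, held 24 hours at 37°C, 5% CO2, then given two-drug dose matrices for 72 hours (DMSO typically 0.2%). Viability was read by CellTiter-Glo 2.0 luminescence and scaled as inhibition from 0 (vehicle wells) to 1 (blank wells). Combination Emax is the second-highest inhibition in the matrix; Bliss excess is observed combination effect minus expected EA + EB − EA·EB, EA and EB being single-agent effects.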

MCF7 (Breast Carcinoma) = test system: MCF7 (Breast Carcinoma)
Procedure, shortened: as §1

[2] = test system: YT (Other Blood Carcinomas)
Procedure, shortened: as §1

A172 (Glioblastoma) = test system: A172 (Glioblastoma)
Procedure, shortened: as §1

Saos-2 (Osteosarcoma) = test system: Saos-2 (Osteosarcoma)
Procedure, shortened: as §1

[3] = test system: TYK-nu (Ovarian Carcinoma)
Procedure, shortened: as §1

CS1 (Chondrosarcoma) = test system: CS1 (Chondrosarcoma)
Procedure, shortened: as §1

[4] = test system: SW48 (Colorectal Carcinoma)
Procedure, shortened: as §1

[5] = test system: EKVX (Non-Small Cell Lung Carcinoma)
Procedure, shortened: as §1

[6] = test system: KG-1 (Acute Myeloid Leukemia)
Procedure, shortened: as §1

[7] = test system: JHH-6 (Hepatocellular Carcinoma)
Procedure, shortened: as §1

[8] = test system: SNG-M (Endometrial Carcinoma)
Procedure, shortened: as §1

[9] = test system: MES-SA (Other Solid Carcinomas)
Procedure, shortened: as §1

[10] = test system: MEG-01 (Chronic Myelogenous Leukemia)
Procedure, shortened: as §1

[11] = test system: GDM-1 (Acute Myeloid Leukemia)
Procedure, shortened: as §1

[12] = test system: HCC1143 (Breast Carcinoma)
Procedure, shortened: as §1

[13] = test system: SK-LMS-1 (Other Solid Carcinomas)
Procedure, shortened: as §1

[14] = test system: HCC-827 (Lung Adenocarcinoma)
Procedure, shortened: as §1

[15] = test system: SKN-3 (Head and Neck Carcinoma)
Procedure, shortened: as §1

HuO9 (Osteosarcoma) = test system: HuO9 (Osteosarcoma)
Procedure, shortened: as §1

Structure (SMILES) | combination Emax [1] | combination Emax (MCF7 (Breast Carcinoma)) | combination Emax [2] | combination Emax (A172 (Glioblastoma)) | combination Emax (Saos-2 (Osteosarcoma)) | combination Emax [3] | combination Emax (CS1 (Chondrosarcoma)) | combination Emax [4] | combination Emax [5] | combination Emax [6] | combination Emax [7] | combination Emax [8] | combination Emax [9] | combination Emax [10] | combination Emax [11] | combination Emax [12] | combination Emax [13] | combination Emax [14] | combination Emax [15] | combination Emax (HuO9 (Osteosarcoma))
CCN(CCO)CCCOc1ccc2c(Nc3cc(CC(=O)Nc4cccc(F)c4)[nH]n3)ncnc2c1 [AZD2811] + C[C@@H]1COCCN1C2=NC(=NC(=C2)C3(CC3)[S@](=N)(=O)C)C4=C5C=CNC5=NC=C4 [AZD6738] (first compound max 1 µM, 7x7, partner max 10 µM) | 0.297 | 0.58 | 0.76 | 0.655 | 0.588 | 0.717 | 0.632 | 0.975 | 0.261 | 0.699 | 0.266 | 0.932 | 0.654 | 0.912 | 0.823 | 0.824 | 0.551 | 0.493 | 0.222 | 0.815
CCN(CCO)CCCOc1ccc2c(Nc3cc(CC(=O)Nc4cccc(F)c4)[nH]n3)ncnc2c1 [AZD2811] + O=C(c1cc(Cc2n[nH]c(=O)c3ccccc23)ccc1F)N1CCN(C(=O)C2CC2)CC1 [Olaparib] (first compound max 1 µM, 7x7, partner max 10 µM) | 0.171 | 0.224 | 0.309 | 0.534 | 0.456 | 0.359 | 0.386 | 0.961 | 0.159 | 0.37 | 0.241 | 0.25 | 0.519 | 0.564 | 0.818 | 0.372 | 0.367 | 0.236 | 0.0796 | 0.293
CN(CCO)CC[C@H](CSc1ccccc1)Nc1ccc(S(=O)(=O)NC(=O)c2ccc(N3CCC([C@@H](O)c4ccccc4-c4ccc(Cl)cc4)CC3)cc2)cc1S(=O)(=O)C(F)(F)F [AZD4320] + C1CN(CCC1(C(=O)N[C@@H](CCO)C2=CC=C(C=C2)Cl)N)C3=NC=NC4=C3C=CN4 [Capivasertib] (first compound max 1 µM, 7x7, partner max 3 µM) | 0.053 | 0.279 | 0.212 | 0.158 | 0.399 | 0.244 | 0.491 | 0.732 | 0.269 | 0.929 | 0.153 | 0.528 | 0.282 | 0.901 | 0.991 | 0.297 | 0.305 | 0.201 | 0.062 | 0.873
CN(CCO)CC[C@H](CSc1ccccc1)Nc1ccc(S(=O)(=O)NC(=O)c2ccc(N3CCC([C@@H](O)c4ccccc4-c4ccc(Cl)cc4)CC3)cc2)cc1S(=O)(=O)C(F)(F)F [AZD4320] + Cn1cnc2c(F)c(Nc3ccc(Br)cc3Cl)c(C(=O)NOCCO)cc21 [Selumetinib] (first compound max 1 µM, 7x7, partner max 3 µM) | 0.512 | 0.402 | 0.737 | 0.212 | 0.517 | 0.619 | 0.847 | 0.914 | 0.314 | 0.971 | 0.35 | 0.526 | 0.246 | – | 1 | 0.361 | 0.924 | 0.298 | 0.355 | 0.979
CCc1c2c(nc3ccc(O)cc13)-c1cc3c(c(=O)n1C2)COC(=O)[C@]3(O)CC [SN-38] + O=C(c1cc(Cc2n[nH]c(=O)c3ccccc23)ccc1F)N1CCN(C(=O)C2CC2)CC1 [Olaparib] (first compound max 0.3 µM, 7x7, partner max 10 µM) | – | 0.654 | 0.895 | 0.842 | 0.96 | 0.766 | 0.846 | 0.799 | 0.3 | – | 0.42 | 0.62 | – | 0.755 | – | – | 0.889 | 0.497 | – | 0.996
Cn1cnc2c(F)c(Nc3ccc(Br)cc3Cl)c(C(=O)NOCCO)cc21 [Selumetinib] + CCN(CCO)CCCOc1ccc2c(Nc3cc(CC(=O)Nc4cccc(F)c4)[nH]n3)ncnc2c1 [AZD2811] (first compound max 10 µM, 7x7, partner max 1 µM) | 0.486 | 0.191 | 0.229 | 0.416 | 0.472 | 0.554 | 0.266 | 0.989 | – | 0.392 | 0.318 | 0.261 | 0.405 | 0.788 | 0.861 | 0.409 | 0.334 | 0.277 | 0.27 | 0.242
Cn1cnc2c(F)c(Nc3ccc(Br)cc3Cl)c(C(=O)NOCCO)cc21 [Selumetinib] + C[C@@H]1COCCN1C2=NC(=NC(=C2)C3(CC3)[S@](=N)(=O)C)C4=C5C=CNC5=NC=C4 [AZD6738] (first compound max 10 µM, 7x7, partner max 10 µM) | 0.527 | 0.468 | 0.801 | 0.549 | 0.456 | 0.732 | 0.472 | 0.723 | – | 0.787 | 0.445 | 0.866 | 0.601 | 0.975 | 0.755 | 0.766 | 0.496 | 0.413 | 0.457 | 0.726
